Test [1] relates to T1, PC12 (TrkA & p75).
T1 construct: other: PC12, A875 an; fused on or other part: 125I label on NGF
The experiment in a line: 125I-NGF binding displacement in PC12 cells. Also on record: species or system rat. As to conditions: PC12, A875 and HEK_TrkA cells taken together. The method, then:
(§1) All cells were incubated at 37° C. in 5% CO2. PC12 cells were maintained in RPMI-1640 medium supplemented with 10% fetal bovine serum (FBS). A875 human melanoma cells were maintained in DMEM with 10% FBS. HEK 293 cells were stably transfected with human TrkA plasmid (see below) and maintained in DMEM with 10% FBS and G418 (600 μg/mL) for selection.
(§2) NGF binding was evaluated using methods familiar to those who are skilled in the art. Briefly, cells expressing one or both NGF receptors (PC12: TrkA+p75; A875: p75 alone; HEK_TrkA: TrkA alone) were harvested by replacing the medium with calcium-magnesium free balanced salt (Grey's) solution and incubating at 37° C. for 15 min. For NGF binding, cells were resuspended at a concentration of 2×10^6 cells/mL in HEPES-Krebs-Ringer (HKR) buffer (10 mM HEPES; 125 mM NaCl; 4.8 mM KCl; 1.3 mM CaCl2; 1.2 mM MgSO4; 1.2 mM KH2PO4; 1 mg/ml BSA; 1 mg/ml glucose; pH 7.4) and exposed to ^125I-NGF (˜0.11 nM) in the presence or absence of varying concentrations of the compound. Non-specific binding was determined for reference by incubating ^125I-NGF with an excess of non-radioactive NGF in the absence of compound. Following a two-hour incubation period at 4° C., ^125I-NGF bound to the cells was quantified in a gamma radiation counter following separation from unbound NGF by filtration or centrifugation through glycerol (10% in HKR). Inhibition of binding was calculated as a percent of the specific binding (calculated as the differential between ^125I-NGF binding in the absence and presence of an excess of non-radioactive NGF without compound). Dose-response inhibition curves were typically generated with seven concentrations of a given compound, with three replicates for each concentration. For most compounds, multiple dose-response curves were generated.

Test [2] concerns T2, PC12 (TrkA & p75).
T2 construct: other: Concentration 25 μM; PC12 cells; other: Concentration 50 μM; other: PC12 cells; 125I-NGF ~0.11 nM; other: PC12 cells expressing TrkA and p75; individual experiment; fused on or other part: 125I label on NGF
The experiment in a line: 125I-NGF binding displacement in PC12 cells. The arrangement: species or system rat. Conditions: PC12 cells expressing TrkA and p75; individual experiment. As for the experimental part:
as §1, §2

The test system of test [3] is Male Sprague-Dawley rats. The experiment in a line: Chung or Spinal Nerve Ligation (SNL) model of neuropathic pain. As to conditions: Von Frey filaments, 90 min post-treatment, 5 and 10 mg/kg i.p. It is filed as in vivo, rat. The text has this: The Spinal Nerve Ligation (SNL) model (Kim and Chung, Pain 1992; 50: 355) was used to induce chronic neuropathic pain. Male Sprague-Dawley rats (Harlan, Indianapolis, Ind., USA) were anesthetized with isoflurane, the left […] was removed, and the L5 and L6 spinal nerves were tightly ligated with 6-0 silk suture. The wound was then closed with internal sutures and external staples.
Mechanical allodynia testing: Pre- and post-injury baselines as well as post-treatment values (vehicle or compound-treated animals) for non-noxious mechanical sensitivity were evaluated using 8 Semmes-Weinstein filaments (Stoelting, Wood Dale, Ill., USA) with varying stiffness according to the up-down method (Chaplan et al., J Neurosci Methods 1994; 53: 55). […] The mean and standard error of the mean (SEM) were determined for each paw in each treatment group. […] Effects of compounds were evaluated two weeks after the injury. Compound or vehicle was administered (i.p. or s.c.) and effects on mechanical allodynia were measured at different time points after dosing (e.g., 30, 60 and 90 min.). […]
Data analysis: Statistical analyses were conducted using Prism™ 4.01 (GraphPad, San Diego, Calif., USA). Mechanical hypersensitivity of the injured paw was determined by comparing contralateral to ipsilateral paw values within the vehicle group at each time point. Data were analyzed using the Mann-Whitney test. […]

Test [4] relates to Male Sprague-Dawley rats. In words: Spared Nerve Injury (SNI) model of neuropathic pain. The test is classed as in vivo, rat. Conditions: Von Frey filaments, 90 min post-treatment, Compound 11 3 and 10 mg/kg i.p., Compound 107 20 mg/kg i.p. The text has this: The Spared Nerve Injury (SNI) model (Decosterd et al., Pain 2000; 87: 149) was used to induce chronic neuropathic pain. Male Sprague-Dawley rats were anesthetized with isoflurane, and two of the three terminal branches of the sciatic nerve (tibial and common peroneal nerves) were transected, leaving the remaining sural nerve intact. Animals develop thermal and mechanical hyperalgesia and allodynia, as well as spontaneous pain or dysesthesia that last month after the nerve injury.
Mechanical allodynia testing: Pre- and post-injury baselines as well as post-treatment values (vehicle or compound-treated animals) for mechanical allodynia were evaluated using Von Frey filaments (Stoelting, Wood Dale, Ill., USA) with varying stiffness. […] The mean and standard error of the mean (SEM) were determined for each paw in each treatment group (ipsilateral/injured paw and contralateral/non-injured paw). […] Effects of compounds were evaluated two weeks after the injury. Compound or vehicle was administered (i.p. or s.c.) and effects on mechanical allodynia were measured at different time points after dosing (e.g., 30, 60 and 90 min.).
Data analysis: Statistical analyses were conducted using Prism™ 4.01 (GraphPad, San Diego, Calif., USA). Mechanical hypersensitivity of the injured paw was determined by comparing contralateral to ipsilateral paw values within the vehicle group at each time point. […]

Entries after “also recorded” stand apart in the source; their conditions may differ.

The results in this text go back to US7579468B2, “Methods of modulating neurotrophin-mediated activity” (PainCeptor Pharma Corporation, priority 2005, dated 2009).

As to `CC(=O)Nc1cc2c3c(cc(NC(C)=O)cc3c1)C(=O)N(CCCC(=O)O)C2=O` [Compound 11, 4-(5,8-Bis-acetylamino-1,3-dioxo-1H,3H-benzo[de]isoquinolin-2-yl)-butyric acid], the “Block of NGF binding to TrkA and/or p75 (summary of FIGS. 1B, 2A, 2B, 4A, 4B, 6A, 6B, 7A, 8A, 8B)” value in the test on PC12 (TrkA & p75) [1] is given as “effectively block NGF binding to TrkA and/or p75”. Besides, the “NGF binding displacement, dose-response curve” value in the test on PC12 (TrkA & p75) [2] is “effectively blocks NGF binding to cells expressing TrkA and p75”. Moreover, in the test with Male Sprague-Dawley rats [3], the “Effect on mechanical allodynia in the SNL model” value is “significant dose-dependent reversal of the mechanical allodynia; also recorded: significant antinociceptive effects”. The “Effect on mechanical allodynia in the SNI model” value in the test on Male Sprague-Dawley rats [4] is recorded as “significant dose-dependent reversal of the mechanical allodynia; also recorded: significant antinociceptive effects”.
